In ChEMBL document CHEMBL1153018, “Synthesis of pochoxime prodrugs as potent HSP90 inhibitors” (Bioorg Med Chem Lett, 2009):
The source made the active and inactive calls. No cut-off for these calls is given here.

Tests used:
Mus musculus [1] = test: Toxicity in ICR-SCID mouse kidney assessed as creatinine level at 150 mg/kg administered 3 times per week for 4 weeks measured after 24 hrs of last dose relative to untreated control; assay type: organism-based; parameters: dose 150 mg/kg; details: in vivo
[2] = Drug level in tumor of human BT474 cells xenografted in ICR-SCID mouse at 150 mg/kg, ip administered after 3 weeks tumor implantation measured after 12 hrs; assay type: ADME, organism-based, Neoplasm, BT-474; parameters: dose 150 mg/kg, route intraperitoneal; details: tumor (human BT474 xenograft), read-out: Drug uptake
K562 = test: Growth inhibition of human K562 cells assessed as ATP level after 4 days; assay type: functional; details: K562, 96 h
BT-474 [3] = test: Induction of p-AKT degradation in human BT474 cells xenografted in ICR-SCID mouse at 100 mg/kg, ip administered after 3 weeks tumor implantation after 6 to 48 hrs by Western blotting; assay type: functional, organism-based; parameters: dose 100 mg/kg
Mus musculus [4] = test: Hepatotoxicity in ICR-SCID mouse liver assessed as aspartate aminotransferase level at 100 mg/kg administered 3 times per week for 4 weeks measured after 24 hrs of last dose relative to untreated control; assay type: toxicity, organism-based; parameters: dose 100 mg/kg; details: in vivo
[5] = Half life in ICR-SCID mouse; assay type: ADME, organism-based; details: in vivo
NCI-H1975 [6] = test: Induction of mutant Cdk4 degradation in human tarceva and iressa-resistant NCI-H1975 cells at 20 to 500 nM by Western blotting; assay type: functional, cell-based
[7] = Drug level in tumor of human BT474 cells xenografted in ICR-SCID mouse at 150 mg/kg, ip administered after 3 weeks tumor implantation measured after 6 hrs; assay type: ADME, organism-based, Neoplasm, BT-474; parameters: dose 150 mg/kg, route intraperitoneal; details: tumor (human BT474 xenograft), read-out: Drug uptake
[8] = Bioavailability in […] dosed mouse; assay type: ADME, organism-based; details: in vivo
[9] = Drug level in tumor of human BT474 cells xenografted in ICR-SCID mouse at 100 mg/kg, ip administered after 3 weeks tumor implantation measured after 48 hrs; assay type: ADME, organism-based, Neoplasm, BT-474; parameters: dose 100 mg/kg, route intraperitoneal; details: tumor (human BT474 xenograft), read-out: Drug uptake
HCC827 [10] = test: Induction of mutant Cyclin D degradation in human tarceva and iressa-resistant HCC827 cells at 20 to 500 nM by Western blotting; assay type: functional, cell-based
BT-474 [11] = test: Induction of AKT degradation in human BT474 cells xenografted in ICR-SCID mouse at 100 mg/kg, ip administered after 3 weeks tumor implantation after 6 to 48 hrs by Western blotting; assay type: functional, organism-based; parameters: dose 100 mg/kg
NCI-H1975 [12] = test: Growth inhibition of human tarceva and iressa-resistant NCI-H1975 cells assessed as ATP level after 4 days; assay type: functional; details: NCI-H1975, 96 h
Mus musculus [13] = test: Toxicity in ICR-SCID mouse heart assessed as […] level at 150 mg/kg administered 3 times per week for 4 weeks measured after 24 hrs of last dose relative to untreated control; assay type: organism-based; parameters: dose 150 mg/kg; details: in vivo
Mus musculus [14] = test: Toxicity in ICR-SCID mouse kidney assessed as BUN level at 150 mg/kg administered 3 times per week for 4 weeks measured after 24 hrs of last dose relative to untreated control; assay type: organism-based; parameters: dose 150 mg/kg; details: in vivo
BT-474 [15] = test: Growth inhibition of human BT474 cells assessed as ATP level after 4 days; assay type: functional; details: BT-474, 96 h
[16] = Drug level in tumor of human BT474 cells xenografted in ICR-SCID mouse at 100 mg/kg, ip administered after 3 weeks tumor implantation measured after 6 hrs; assay type: ADME, organism-based, Neoplasm, BT-474; parameters: dose 100 mg/kg, route intraperitoneal; details: tumor (human BT474 xenograft), read-out: Drug uptake
[17] = Growth inhibition of human A172 cells assessed as ATP level after 4 days; assay type: functional; details: A 172, 96 h
BT-474 [18] = test: Induction of Cdk4 degradation in human BT474 cells xenografted in ICR-SCID mouse at 100 mg/kg, ip administered after 3 weeks tumor implantation after 6 to 48 hrs by Western blotting; assay type: functional, organism-based; parameters: dose 100 mg/kg
BT-474 [19] = test: Induction of HSP70 degradation in human BT474 cells xenografted in ICR-SCID mouse at 100 mg/kg, ip administered after 3 weeks tumor implantation after 6 to 48 hrs by Western blotting; assay type: functional, organism-based; parameters: dose 100 mg/kg
Mus musculus [20] = test: Hepatotoxicity in ICR-SCID mouse liver assessed as bilirubin level at 100 mg/kg administered 3 times per week for 4 weeks measured after 24 hrs of last dose relative to untreated control; assay type: toxicity, organism-based; parameters: dose 100 mg/kg; details: in vivo
[21] = Drug level in tumor of human BT474 cells xenografted in ICR-SCID mouse at 200 mg/kg, ip administered after 3 weeks tumor implantation measured after 6 hrs; assay type: ADME, organism-based, Neoplasm, BT-474; parameters: dose 200 mg/kg, route intraperitoneal; details: tumor (human BT474 xenograft), read-out: Drug uptake
[22] = Drug level in tumor of human BT474 cells xenografted in ICR-SCID mouse at 150 mg/kg, ip administered after 3 weeks tumor implantation measured after 48 hrs; assay type: ADME, organism-based, Neoplasm, BT-474; parameters: dose 150 mg/kg, route intraperitoneal; details: tumor (human BT474 xenograft), read-out: Drug uptake
HCC827 [23] = test: Induction of mutant c-Raf degradation in human tarceva and iressa-resistant HCC827 cells at 20 to 500 nM by Western blotting; assay type: functional, cell-based
[24] = Growth inhibition of human tarceva and iressa-resistant HCC827 cells assessed as ATP level after 4 days; assay type: functional; details: HCC827, 96 h
Homo sapiens = species: Homo sapiens; test: Growth inhibition of human tarceva and iressa-resistant […] cells assessed as ATP level after 4 days; assay type: functional

O=C1OCC/C=C/CC/C=C/C(=N/OCC(=O)N2CCCCC2)Cc2c(Cl)c(O)cc(O)c21 [POCHOXIME A]
Activity (Mus musculus [1]): 0.2 mg/dL | concentration at 12 h [2]: 6500 ng/g | GI50 (K562): 6 nM | Activity (BT-474 [3]): Active | Activity (Mus musculus [4]): 88.7 U/L | half-life [5]: 2.5 h | Activity (NCI-H1975 [6]): Active | concentration at 6 h [7]: 6180 ng/g | bioavailability [8]: 60.5% | concentration at 48 h [9]: 1500 ng/g | Activity (HCC827 [10]): Active | Activity (BT-474 [11]): Active | GI50 (NCI-H1975 [12]): 25 nM | Activity (Mus musculus [13]): 31 U/L | Activity (Mus musculus [14]): 19 mg/dL | GI50 (BT-474 [15]): 7 nM | concentration at 6 h [16]: 5490 ng/g | GI50 [17]: 42 nM | Activity (BT-474 [18]): Active | Activity (BT-474 [19]): Active | Activity (Mus musculus [20]): 0.2 mg/dL | concentration at 6 h [21]: 6520 ng/g | concentration at 48 h [22]: 4580 ng/g | Activity (HCC827 [23]): Active | GI50 [24]: 31 nM | Activity (Homo sapiens): Active
